Experimental data reported in patent publication US11384060B2, “Amide compounds and use thereof” (ALPHALA CO., LTD., priority 2017, dated 2022).
pIC50: −log10 of the molar value. Like-named read-outs stand apart in the source and are kept apart here.

How the values were obtained:
glucagon receptor (GCGR) = target: T1, glucagon receptor (GCGR) (Homo sapiens, UniProt P47871); test: I125-glucagon binding assay (competition, GCGR membrane fractions)
T1 construct: expressed in transfected cells; host or cells: CHO-K1 cells overexpressing GCGR (membrane fractions)
Method in brief: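 Competition of 0.0625 nM (final) I^125-glucagon for 30 min at 25° C, after 5 min compound preincubation, using 7.5 μg/well GCGR-overexpressing CHO-K1 membranes in 50 mM Tris pH 7.4, 0.5% BSA. Filtration onto PEI-coated GF/B, micro-beta counting, and non-linear regression gave IC50.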

[1] = target: T2, glucagon receptor (GCGR) overexpressed CHO-K1 cells or human primary hepatocytes (Homo sapiens, UniProt P47871); test: Glucagon cAMP inhibition assay (Cisbio cAMP Dynamic 2 HTRF); assay type: cell-based
T2 construct: expressed in transfected cells; host or cells: GCGR overexpressed CHO-K1 cells or human primary hepatocytes (endogenous receptor)
Method in brief: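 HTRF read-out of glucagon-induced cAMP, with IC50 from non-linear regression. Cells (GCGR CHO-K1 or human primary hepatocytes) in HBSS/0.1% BSA/800 nM IBMX took compound dilutions for 30 min (final DMSO 1%), then EC50-level glucagon for 30 min at room temperature, then a 60 min lysis/detection step.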

[2] = competition with I125-glucagon 0.0625 nM, membrane fractions of GCGR overexpressed CHO-K1 cells
[3] = inhibition of glucagon (EC50 concentration) induced cAMP production

T1 sequence (P47871 26-477): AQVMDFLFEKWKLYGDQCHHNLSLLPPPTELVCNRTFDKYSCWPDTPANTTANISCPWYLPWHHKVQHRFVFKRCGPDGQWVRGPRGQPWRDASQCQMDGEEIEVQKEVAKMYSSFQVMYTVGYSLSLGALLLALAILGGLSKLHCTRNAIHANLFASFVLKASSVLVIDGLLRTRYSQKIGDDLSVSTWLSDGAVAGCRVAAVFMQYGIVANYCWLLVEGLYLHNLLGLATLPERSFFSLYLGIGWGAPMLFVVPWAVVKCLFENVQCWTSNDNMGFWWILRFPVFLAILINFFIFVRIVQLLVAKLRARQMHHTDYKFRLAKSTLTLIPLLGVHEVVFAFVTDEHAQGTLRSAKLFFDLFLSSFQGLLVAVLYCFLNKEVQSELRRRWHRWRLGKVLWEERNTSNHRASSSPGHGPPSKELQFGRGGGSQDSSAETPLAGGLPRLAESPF
T2 sequence (P47871 26-477): as above

## CCCC[C@@H](COc1ccc(-c2ccc(C(F)(F)F)cc2F)cn1)Nc1ccc(C(=O)NCCC(=O)O)cc1 [Compound 15-26, (S)-3-(4-((1-((5-(2-fluoro-4-(trifluoromethyl)phenyl)pyridin-2-yl)oxy)hexan-2-yl)amino)benzamido)propanoic Acid]
Glucagon receptor (GCGR)
  pIC50: 6.64
[1]
  IC50 cAMP: 206.6 nM

## O=C(O)CCNC(=O)c1ccc(N[C@H](COc2ccc(C(F)(F)F)cn2)c2ccc(-c3ccc(C(F)(F)F)cc3)cc2)cc1 [Compound 15-27, (S)-3-(4-((1-(4′-(trifluoromethyl)-[1,1′-biphenyl]-4-yl)-2-((5-(trifluoromethyl)pyridin-2-yl)oxy)ethyl)amino)benzamido)propanoic Acid]
Glucagon receptor (GCGR)
  pIC50: 7.00
[1]
  IC50 cAMP: 316 nM

## O=C(NCCS(=O)(=O)O)c1ccc(N[C@H](COc2ccc(-c3cc4ccccc4o3)cn2)c2ccc(-c3ccc(C(F)(F)F)cc3)cc2)cc1 [Compound 15-28, (S)-2-(4-((2-((5-(benzofuran-2-yl)pyridin-2-yl)oxy)-1-(4′-(trifluoromethyl)-[1,1′-biphenyl]-4-yl)ethyl)amino)benzamido)ethane-1-sulfonic Acid]
Glucagon receptor (GCGR)
  pIC50: 7.00
[1]
  IC50 cAMP: 11647 nM

## O=C(O)CCNC(=O)c1ccc(N[C@H](COc2ccc(-c3cc4ccccc4o3)cn2)c2ccc(-c3ccc(C(F)(F)F)cc3)cc2)cc1 [Compound 15-29, (S)-3-(4-((2-((5-(benzofuran-2-yl)pyridin-2-yl)oxy)-1-(4′-(trifluoromethyl)-[1,1′-biphenyl]-4-yl)ethyl)amino)benzamido)propanoic Acid]
Glucagon receptor (GCGR)
  pIC50: 7.70
[1]
  IC50 cAMP: 107 nM

## CC(C)(C)c1nnc(-c2ccc(OC[C@@H](Nc3ccc(C(=O)NCCC(=O)O)cc3)c3ccc(-c4ccc(C(F)(F)F)cc4)cc3)nc2)o1 [Compound 15-30, (S)-3-(4-((2-((5-(5-(tert-butyl)-1,3,4-oxadiazol-2-yl)pyridin-2-yl)oxy)-1-(4′-(trifluoromethyl)-[1,1′-biphenyl]-4-yl)ethyl)amino)benzamido)propanoic Acid]
Glucagon receptor (GCGR)
  pIC50: 5.70
[1]
  IC50 cAMP: 18257 nM

## CCOC(=O)CCNC(=O)c1ccc(N[C@H](COc2ccc(-c3nnc(C(C)(C)C)o3)cn2)c2ccc(-c3ccc(C(F)(F)F)cc3F)cc2)cc1 [Compound 15-31, Ethyl (S)-3-(4-((2-((5-(5-(tert-butyl)-1,3,4-oxadiazol-2-yl)pyridin-2-yl)oxy)-1-(2′-fluoro-4′-(trifluoromethyl)-[1,1′-biphenyl]-4-yl)ethyl)amino)benzamido)propanoate]
Glucagon receptor (GCGR)
  pIC50: < 4.52
[1]
  IC50 cAMP: >30000 nM

## CC(C)(C)c1nnc(-c2ccc(OC[C@@H](Nc3ccc(C(=O)NCCC(=O)O)cc3)c3ccc(-c4ccc(C(F)(F)F)cc4F)cc3)nc2)o1 [Compound 15-32, (S)-3-(4-((2-((5-(5-(tert-butyl)-1,3,4-oxadiazol-2-yl)pyridin-2-yl)oxy)-1-(2′-fluoro-4′-(trifluoromethyl)-[1,1′-biphenyl]-4-yl)ethyl)amino)benzamido)propanoic Acid]
Glucagon receptor (GCGR)
  pIC50: 6.82
[1]
  IC50 cAMP: 809 nM

## CCOC(=O)CCNC(=O)c1ccc(N[C@H](COc2ccc(-c3nnc(C(C)(C)C)o3)cn2)c2ccc(-c3ccc(Cl)cc3Cl)cc2)cc1 [Compound 15-33, Ethyl (S)-3-(4-((2-((5-(5-(tert-butyl)-1,3,4-oxadiazol-2-yl)pyridin-2-yl)oxy)-1-(2′,4′-dichloro-[1,1′-biphenyl]-4-yl)ethyl)amino)benzamido)propanoate]
Glucagon receptor (GCGR)
  pIC50: < 4.52
[1]
  IC50 cAMP: >30000 nM

## CC(C)(C)c1nnc(-c2ccc(OC[C@@H](Nc3ccc(C(=O)NCCC(=O)O)cc3)c3ccc(-c4ccc(Cl)cc4Cl)cc3)nc2)o1 [Compound 15-34, (S)-3-(4-((2-((5-(5-(tert-butyl)-1,3,4-oxadiazol-2-yl)pyridin-2-yl)oxy)-1-(2′,4′-dichloro-[1,1′-biphenyl]-4-yl)ethyl)amino)benzamido)propanoic Acid]
Glucagon receptor (GCGR)
  pIC50: 5.52
[1]
  IC50 cAMP: 4558 nM

## COc1cnc(-c2ccc([C@@H](COc3ccc(-c4cc5ccccc5o4)cn3)Nc3ccc(C(=O)NCCS(=O)(=O)O)cc3)cc2)nc1 [Compound 15-35, (S)-2-(4-((2-((5-(benzofuran-2-yl)pyridin-2-yl)oxy)-1-(4-(5-methoxypyrimidin-2-yl)phenyl)ethyl)amino)benzamido)ethane-1-sulfonic Acid]
Glucagon receptor (GCGR)
  pIC50: 6.23
[1]
  IC50 cAMP: >30000 nM

## CCOC(=O)CCNC(=O)c1ccc(N[C@H](COc2ccc(-c3nc4ccccc4s3)cn2)C(C)C)cc1 [Compound 15-36, Ethyl (S)-3-(4-((1-((5-(benzo[d]thiazol-2-yl)pyridin-2-yl)oxy)-3-methylbutan-2-yl)amino)benzamido)propanoate]
Glucagon receptor (GCGR); uM
  IC50: > 30 µM
[1]
  IC50 cAMP: 1973 nM

## CC(C)[C@@H](COc1ccc(-c2nc3ccccc3s2)cn1)Nc1ccc(C(=O)NCCC(=O)O)cc1 [Compound 15-37, (S)-3-(4-((1-((5-(benzo[d]thiazol-2-yl)pyridin-2-yl)oxy)-3-methylbutan-2-yl)amino)benzamido)propanoic Acid]
Glucagon receptor (GCGR)
  pIC50: 6.33
[1]
  IC50 cAMP: 1609 nM

## CC(C)[C@@H](COc1ccc(-c2ccc(Cl)cc2Cl)cn1)Nc1ccc(C(=O)NCCC(=O)O)cn1 [Compound 16-1, (S)-3-(6-((1-((5-(2,4-dichlorophenyl)pyridin-2-yl)oxy)-3-methylbutan-2-yl)amino)nicotinamido)propanoic Acid]
Glucagon receptor (GCGR); [2]
  pIC50: 6.67
[1]; [3]
  IC50 cAMP: 357.2 nM

## CC(C)[C@@H](COc1ccc(-c2cc3ccccc3o2)cn1)Nc1ccc(C(=O)NCCC(=O)O)cn1 [Compound 16-2, (S)-3-(6-((1-((5-(benzofuran-2-yl)pyridin-2-yl)oxy)-3-methylbutan-2-yl)amino)nicotinamido)propanoic Acid]
Glucagon receptor (GCGR); [2]
  pIC50: 6.28
[1]; [3]
  IC50 cAMP: 239.3 nM

## CC(C)C[C@@H](COc1ccc(-c2ccc(F)cc2F)nn1)Nc1ccc(C(=O)NCCC(=O)O)cc1 [Compound 17-1, (S)-3-(4-((1-((6-(2,4-difluorophenyl)pyridazin-3-yl)oxy)-4-methylpentan-2-yl)amino)benzamido)propanoic Acid]
Glucagon receptor (GCGR); [2]
  pIC50: 5.65
[1]; [3]
  IC50 cAMP: 4239 nM

## CC(C)C[C@@H](COc1ccc(-c2ccc(Cl)cc2Cl)nn1)Nc1ccc(C(=O)NCCC(=O)O)cc1 [Compound 17-2, (S)-3-(4-((1-((6-(2,4-dichlorophenyl)pyridazin-3-yl)oxy)-4-methylpentan-2-yl)amino)benzamido)propanoic Acid]
Glucagon receptor (GCGR); [2]
  pIC50: 6.86
[1]; [3]
  IC50 cAMP: 716 nM

## CC[C@H](C)[C@@H](COc1ccc(-c2ccc(C(F)(F)F)cc2)nn1)Nc1ccc(C(=O)NCCC(=O)O)cc1 [Compound 17-3, 3-(4-(((2S,3S)-3-methyl-1-((6-(4-(trifluoromethyl)phenyl)pyridazin-3-yl)oxy)pentan-2-yl)amino)benzamido)propanoic Acid]
Glucagon receptor (GCGR); [2]
  pIC50: 6.00
[1]; [3]
  IC50 cAMP: 1307 nM

## CC[C@H](C)[C@@H](COc1ccc(-c2ccc(C(F)(F)F)cc2Cl)nn1)Nc1ccc(C(=O)NCCC(=O)O)cc1 [Compound 17-4, 3-(4-(((2S,3S)-1-((6-(2-chloro-4-(trifluoromethyl)phenyl)pyridazin-3-yl)oxy)-3-methylpentan-2-yl)amino)benzamido)propanoic Acid]
Glucagon receptor (GCGR); [2]
  pIC50: 6.22
[1]; [3]
  IC50 cAMP: 1266 nM

## CC[C@H](C)[C@@H](COc1ccc(-c2ccc(C(F)(F)F)cc2F)nn1)Nc1ccc(C(=O)NCCC(=O)O)cc1 [Compound 17-5, 3-(4-(((2S,3S)-1-((6-(2-fluoro-4-(trifluoromethyl)phenyl)pyridazin-3-yl)oxy)-3-methylpentan-2-yl)amino)benzamido)propanoic Acid]
Glucagon receptor (GCGR); [2]
  pIC50: 6.11
[1]; [3]
  IC50 cAMP: 3332 nM

## CC[C@H](C)[C@@H](COc1ccc(-c2ccc(F)cc2F)nn1)Nc1ccc(C(=O)NCCC(=O)O)cc1 [Compound 17-6, 3-(4-(((2S,3S)-1-((6-(2,4-difluorophenyl)pyridazin-3-yl)oxy)-3-methylpentan-2-yl)amino)benzamido)propanoic Acid]
Glucagon receptor (GCGR); [2]
  pIC50: 6.35
[1]; [3]
  IC50 cAMP: 10157 nM

## CC(C)C[C@@H](COc1ccc(-c2ccc(C(F)(F)F)cc2)nn1)Nc1ccc(C(=O)NCCC(=O)O)cc1 [Compound 17-7, (S)-3-(4-((4-methyl-1-((6-(4-(trifluoromethyl)phenyl)pyridazin-3-yl)oxy)pentan-2-yl)amino)benzamido)propanoic Acid]
Glucagon receptor (GCGR); [2]
  pIC50: 5.88
[1]; [3]
  IC50 cAMP: 7647 nM

## CC(C)[C@@H](COc1ccc(-c2cc3ccccc3o2)nn1)Nc1ccc(C(=O)NCCC(=O)O)cc1 [Compound 17-8, (S)-3-(4-((1-((6-(benzofuran-2-yl)pyridazin-3-yl)oxy)-3-methylbutan-2-yl)amino)benzamido)propanoic Acid]
Glucagon receptor (GCGR); [2]
  pIC50: 5.69
[1]; [3]
  IC50 cAMP: 10741 nM

## CC(C)[C@@H](COc1ccc(-c2ccc(C(F)(F)F)cc2F)nn1)Nc1ccc(C(=O)NCCC(=O)O)cc1 [Compound 17-9]
Glucagon receptor (GCGR); [2]
  pIC50: 5.59
[1]; [3]
  IC50 cAMP: 11597 nM

## CC(C)[C@@H](COc1ccc(-c2ccc(F)cc2)nn1)Nc1ccc(C(=O)NCCC(=O)O)cc1 [Compound 17-10, (S)-3-(4-((1-((6-(4-fluorophenyl)pyridazin-3-yl)oxy)-3-methylbutan-2-yl)amino)benzamido)propanoic Acid]
Glucagon receptor (GCGR); [2]
  pIC50: 5.64
[1]; [3]
  IC50 cAMP: >30000 nM

## CC(C)[C@@H](COc1ccc(-c2ccc(F)cc2F)nn1)Nc1ccc(C(=O)NCCC(=O)O)cc1 [Compound 17-11, (S)-3-(4-((1-((6-(2,4-difluorophenyl)pyridazin-3-yl)oxy)-3-methylbutan-2-yl)amino)benzamido)propanoic Acid]
Glucagon receptor (GCGR); [2]
  pIC50: 5.99
[1]; [3]
  IC50 cAMP: >30000 nM
